Counter-ions that a name gives are not always drawn.
What was measured:
[1] = tested on: tumorigenic breast cancer cells BT-474; test: Growth inhibition assay (CyQUANT Cell Proliferation Assay) in BT-474 cells; assay type: cell-based; settings: Homo sapiens; for GI50: 48 h, CyQUANT, read-out: Cell Growth Inibition GI50; for Emax: reduction of cells after 48 h at saturating dose, read-out: Cell Growth Inibition GImax
Description: Given that REV-ERB target genes include several metabolic regulators, such as Pgc-1α and Nampt, it was decided to test the cell proliferation with a method that is independent from the metabolic state of the cell.
(§1) The CyQUANT® Cell Proliferation Assay Kit (Invitrogen) was used, an assay that has a linear detection range extending from 50 or fewer to at least 250,000 cells.
(§2) Frozen cells are simply thawed and lysed by addition of a buffer containing the CyQUANT®.
For the assay, tumorigenic breast cancer cells BT-474 cells were seeded at 2500 cells per well in a 96-well plate and incubated over-night at 37° C. Then, fresh medium containing different concentration of the compounds or vehicle (DMSO) was added and cells were growth 48 h at 37° C. Finally, cells were frozen at […] and then processed according to the manufacture instructions. A minimum of triplicate data for each dose was used for the analysis.
(§3) Data were collected and analyzed with Prism 5 software to calculate the growth inhibition curve.
(§4) In particular, values obtained from the DMSO treated cells was set at 100% of growth. Data from treatment of cells with serial dilutions of the compounds were normalized versus the DMSO group and fitted using a four-parameter dose-response curve.
(§5) GI50 was calculated as the concentration of compound that gives a response half way between bottom and top plateaus of the fitted curve.
The bottom plateaus of the fitted curve was used to calculate the Growth Inhibition max (GImax), defined as the percentage of the reduction of cells after 48 h upon a saturating dose of compound.
(§6) The different compounds were tested for their ability to inhibit the growth of the tumorigenic breast cancer cells BT-474 and for their antagonistic activity toward REV-ERB transcriptional repression, as described in the biological method section.
For the cell growth inhibition (GI) the growth inhibition 50 (GI50) and the growth inhibition max (GImax) are reported. […] The bottom plateaus of the curve was used to calculate the Growth Inhibition max (GImax), defined as the percentage of the reduction of cells after 48 h upon a saturating dose of the administered compound. Compounds with a GI50<100 μM were also tested for their antagonistic activity toward REV-ERB. For these compounds, the EC50 value is provided, calculated as the concentration of compound that gives a response half between the bottom (expression of the reporter in absence of compound) and the top (expression of the reporter at saturating doses of compound) plateaus of the fitted curves (see biological method section for a description of the reported assay). n.d.=not determined; n.t.=not tested.

REV-ERB = test: Luciferase-based assay of REV-ERB mediated transcriptional regulation (RevRE/SV40-CLuc reporter in HEK-293 cells); assay type: cell-based; settings: HEK-293 cells transfected with RevRE reporter and REV-ERBα and/or β; read 24 h post-transfection; read-out: REV-ERB antagonism EC50
Description: Luciferase-Base Assay to Assess the Activity of the Compounds on REV-ERB Mediated Transcriptional Regulation
In order to assess the effect of the compounds of the invention on REV-ERB activity the inventors exploited the ability of REV-ERB to repress gene transcription of a specific DNA cis-element. In fact, the DNA binding domain (DBD) of REV-ERB recognizes specific DNA sequences (called RevREs=Rev-erb Responsive Elements) which contains an AGGTCA motif linked in 5′ to an A/T rich sequence harboring the following consensus: A/T A A/T N T (Harding et al., Mol Cell Biol., 1993; 13:3113).
Therefore, two repetitions of the RevRE consensus AGAATGTAGGTCA (SEQ ID NO: 13) upstream a SV40 promoter driving the expression of a reporter gene were cloned. As reported, the luciferase enzyme from the ostracod Cypridina noctiluca was adopted. […] Cypridina luciferase (CLuc) is secreted from cells by virtue of its natural signal peptide and its luminescence can be measured from the supernatant of transfected cells. Therefore, cell lysis is not necessary. Secreted CLuc is a very stable protein. Because of this property, the activity measured from the supernatant reflects the amount of protein accumulated up to the time of sampling. Multiple samples can therefore be obtained from the same transfected cells, allowing an easy set-up of time-course experiments. In addition, the direct use of the supernatant makes the system easily prone to automation for High Throughput Screening.
In order to normalize the experiment for the transfection efficiency, it was used a plasmid containing a SV40 promoter driving the expression of a secreted form of human alkaline phosphatase (SEAP), which enzymatic activity in the supernatant can be measured with chemiluminescence substrates.
To be able to rule out false-positive, for example due to the interference of the compounds to be tested with the fluorescence and/or chemiluminescence reactions, it was used as control a mutated version of the RevRE (GAGCCCGTAGGTCA) (SEQ ID NO: 14) that is no longer able to bind REV-ERB DBD (Harding et al., Mol Cell Biol., 1993; 13:3113).
The person skilled in the art will appreciate that an agonist will improve the ability of REV-ERB to repress the transcription, reducing the luminescence signal, while an antagonist will produce the opposite effect.
For the assay, HEK-293 cells were transfected with the reporter vectors and a plasmid expressing the REV-ERBα and/or β protein. After 6 h from transfection, the medium was replaced with fresh medium containing different doses of the compounds or vehicle (DMSO). After 24 h post-transfection, the supernatant was analyzed for the secreted luciferase and AP activity according to the manufacture instruction. Data normalized as fold activation versus vehicle (DMSO) were fitted using a four-parameter dose-response curve to calculate the EC50 of the different compounds.
as §6
For the cell growth inhibition (GI) the growth inhibition 50 (GI50) and the growth inhibition max (GImax) are reported. […] The bottom plateaus of the curve was used to calculate the Growth Inhibition max (GImax), defined as the percentage of the reduction of cells after 48 h upon a saturating dose of the administered compound. Compounds with a GI50<100 μM were also tested for their antagonistic activity toward REV-ERB. […]

[2] = tested on: endogenous REV-ERB mediated transcription; test: Gene expression analysis (qPCR) of endogenous REV-ERB target genes in BT-474 cells; assay type: cell-based; settings: 24 h, different doses, qPCR normalised to Gapdh
Experimental: Gene Expression Analysis of Endogenous REV-ERB Target Genes after Treatment with the Compound of Example 1
In order to test the effect of the compound of example 1 on the endogenous REV-ERB mediated transcription, BT-474 cells were treated 24 h with different doses of the compound of the example 1 and then processed for RNA extraction.
Total RNA was extracted with Trizol reagent (Invitrogen) according to the manufacture instruction. One microgram of RNA was retro-transcribed with VILO retrotranscription mix (Invitrogen) and subsequently analyzed by qPCR as described in Grimaldi et al., Cell Metab., 2010; 12:509-520.
The REV-ERB targets Per1, Bmal1, Nampt, and p21 were analyzed. Gapdh gene was used to normalize the data, while Hprt1 gene was used as independent REV-ERB gene (negative control).
The results obtained are illustrated in FIG. 1 Values are presented as Relative expression, calculated versus the normalizing gene Gapdh, and shown as mean±SEM from at least 3 independent experiments. The expression of the REV-ERBs independent gene, Hprt1, was used as negative control.

HCT116 = test: Growth inhibition of different tumor cell lines: HCT116; assay type: cell-based; settings: Homo sapiens, HCT-116; HCT116, colorectal carcinoma, p53 Wild-Type
Description: as §1, §2, §3, §4, §5
(§7) To test if the growth inhibition activity of the compound of example 1 was limited to breast cancer BT-474 cells, or if it could be generalized in other tumor cells from different tissues, the GI50 of compound of example 1 was tested in several cell lines.

HCT116-E6 = test: Growth inhibition of different tumor cell lines: HCT116-E6; assay type: cell-based; settings: HCT116-E6, colorectal carcinoma, p53 no protein expression
Description: as §1, §2, §3, §4, §5, §7

CaCO2 = test: Growth inhibition of different tumor cell lines: CaCO2; assay type: cell-based; settings: Homo sapiens, Caco-2; CaCO2, colorectal adenocarcinoma, p53 no protein expression
Description: as §1, §2, §3, §4, §5, §7

WiDr = test: Growth inhibition of different tumor cell lines: WiDr; assay type: cell-based; settings: Homo sapiens, colon adenocarcinoma, p53 mutant protein
Description: as §1, §2, §3, §4, §5, §7

Colo-205 = test: Growth inhibition of different tumor cell lines: Colo-205; assay type: cell-based; settings: Homo sapiens; Colo-205, colon, metastatic site: ascites, p53 mutant protein
Description: as §1, §2, §3, §4, §5, §7

HepG2 = test: Growth inhibition of different tumor cell lines: HepG2; assay type: cell-based; settings: Homo sapiens; HepG2, liver hepatocellular carcinoma, p53 Wild-Type
Description: as §1, §2, §3, §4, §5, §7

SK-Hep1 = test: Growth inhibition of different tumor cell lines: SK-Hep1; assay type: cell-based; settings: Homo sapiens; SK-Hep1, liver adenocarcinoma, p53 Wild-Type
Description: as §1, §2, §3, §4, §5, §7

Hep3B = test: Growth inhibition of different tumor cell lines: Hep3B; assay type: cell-based; settings: Homo sapiens, liver hepatocellular carcinoma, p53 no protein expression
Description: as §1, §2, §3, §4, §5, §7

HuH7 = test: Growth inhibition of different tumor cell lines: HuH7; assay type: cell-based; settings: Homo sapiens, Huh-7; HuH7, liver hepatocellular carcinoma, p53 mutant protein
Description: as §1, §2, §3, §4, §5, §7

LXRα = target: T1, LXRα (Homo sapiens, UniProt Q13133); settings: Trump et al., J. Med. Chem., 2013; cited from earlier work
T1 sequence (Q13133 1-447): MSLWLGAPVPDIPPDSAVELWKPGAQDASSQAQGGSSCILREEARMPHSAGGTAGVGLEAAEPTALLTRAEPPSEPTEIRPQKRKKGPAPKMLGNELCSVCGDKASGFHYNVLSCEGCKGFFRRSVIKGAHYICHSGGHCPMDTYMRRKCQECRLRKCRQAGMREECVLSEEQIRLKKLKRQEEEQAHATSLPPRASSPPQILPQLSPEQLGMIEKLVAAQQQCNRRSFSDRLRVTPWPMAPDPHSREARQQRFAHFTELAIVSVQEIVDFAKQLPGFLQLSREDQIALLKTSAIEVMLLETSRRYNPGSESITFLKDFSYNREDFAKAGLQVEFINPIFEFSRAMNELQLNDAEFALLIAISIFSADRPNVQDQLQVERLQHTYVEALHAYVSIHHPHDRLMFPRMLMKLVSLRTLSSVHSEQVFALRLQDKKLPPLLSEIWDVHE

[3] = cited from earlier work; for pharmacokinetic properties: literature; for metabolic clearance: in vivo, Solt et al., Nature, 2012
REV-ERBα = target: T2, REV-ERBα (Homo sapiens, UniProt P20393); settings: literature; cited from earlier work
T2 sequence (P20393 284-614 limits assumed): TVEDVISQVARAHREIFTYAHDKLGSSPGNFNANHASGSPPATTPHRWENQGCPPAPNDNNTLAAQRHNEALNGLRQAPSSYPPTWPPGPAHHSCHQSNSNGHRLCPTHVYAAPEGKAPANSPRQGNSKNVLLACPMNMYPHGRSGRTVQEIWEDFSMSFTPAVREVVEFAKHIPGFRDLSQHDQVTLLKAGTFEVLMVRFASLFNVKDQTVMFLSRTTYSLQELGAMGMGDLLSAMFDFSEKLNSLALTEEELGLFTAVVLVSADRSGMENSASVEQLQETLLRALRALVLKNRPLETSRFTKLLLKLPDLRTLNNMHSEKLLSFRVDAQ

CN1CCN(Cc2cc(CNC3(c4ccccc4F)CCCC3)ccc2O)CC1 [Example 1, 4-[[[1-(2-Fluorophenyl)cyclopentyl]amino]methyl]-2-[(4-methylpiperazin-1-yl)methyl]phenol trihydrochloride]
GI50 [1]: 18 µM | Emax [1]: 72% | EC50 (REV-ERB): 25 µM | expression of Bmal1 (REV-ERB target, circadian regulation) [2]: induced in a dose-dependent manner | expression of Nampt (REV-ERB target, metabolism) [2]: induced in a dose-dependent manner | expression of Per1 (REV-ERB target, circadian regulation) [2]: induced in a dose-dependent manner | expression of p21 (REV-ERB target, cell cycle) [2]: induced in a dose-dependent manner | expression of the REV-ERB independent gene Hprt1 (negative control) [2]: negligible effects | GI50 (HCT116): 19 µM | GI50 (HCT116-E6): 20 µM | GI50 (CaCO2): 18 µM | GI50 (WiDr): 12 µM | GI50 (Colo-205): 30 µM | GI50 (HepG2): 10 µM | GI50 (SK-Hep1): 50 µM | GI50 (Hep3B): 10 µM | GI50 (HuH7): 8 µM

CN1CCC(Cc2cccc(CNC3(c4ccc(F)cc4)CCCC3)c2)CC1 [Example 32, 1-(4-Fluorophenyl)-N-[[3-[(1-methyl-4-piperidyl)methyl]phenyl]methyl]cyclopentanamine dihydrochloride]
GI50 [1]: 1 µM | Emax [1]: 97% | EC50 (REV-ERB): 2 µM

CN1CCN(Cc2cc(CNC3(c4ccccc4F)CCC3)ccc2O)CC1 [Example 33, 4-[[[1-(2-Fluorophenyl)cyclobutyl]amino]methyl]-2-[(4-methylpiperazin-1-yl)methyl]phenol trihydrochloride]
GI50 [1]: 30 µM | Emax [1]: 70% | EC50 (REV-ERB): 38 µM

CC(C)(C)OC(=O)CN(Cc1ccc(Cl)cc1)Cc1ccc([N+](=O)[O-])s1 [GSK4112]
activity on LXRα (LXRα): agonizes | pharmacokinetic properties [3]: poor pharmacokinetic properties | effect on interaction of NCoR peptide with REV-ERBα (FRET) (REV-ERBα): dose-dependently increase the interaction

CCOC(=O)C1Cc2ccccc2CN1C(=O)c1ccc(SC)s1 (centres unmarked) [SR8278]
pharmacokinetic properties [3]: poor pharmacokinetic properties | effect on interaction of NCoR peptide with REV-ERBα (FRET) (REV-ERBα): inhibit REV-ERBα LBD/NcoR interaction

CCOC(=O)N1CCC(CN(Cc2ccc(Cl)cc2)Cc2ccc([N+](=O)[O-])s2)C1 (centres unmarked) [SR9009]
times more active toward LXRα than REV-ERBs (LXRα): 100 times | metabolic clearance [3]: high metabolic clearance rates

CCCCCNC(=O)N1CCC(CN(Cc2ccc(Cl)cc2)Cc2ccc([N+](=O)[O-])s2)C1 (centres unmarked) [SR9011]
times more active toward LXRα than REV-ERBs (LXRα): 100 times | metabolic clearance [3]: high metabolic clearance rates

Reference: patent US9949968B2, “Diarylalkylamine REV-ERB antagonists and their use as medicaments” (FONDAZIONE ISTITUTO ITALIANO DI TECNOLOGIA, priority 2013, dated 2018)
